# Assay results: patent US20200323843A1 (IRR, Inc., priority 2010, published 2020)
# Entries after “also recorded” stand apart in the source; their conditions may differ. Read-outs that look alike come from different tables or passages of the source.
# Assays:
# [1] = cited from earlier work
# human rhinovirus = conditions: airway epithelial cells; cited from earlier work
# [2] = tested on: eosinophil migration, IL-4, IL-6, IL-8; conditions: cited from earlier work
# influenza [3] = conditions: 10 days; levocetirizine 5 mg po and/or montelukast 10 mg po
# Excerpt: A cohort of 20 patients between the ages of 15-30 years of age (and no other co-morbid disease processes), presenting with classic symptoms of influenza: headache, fever, dry cough and extreme fatigue, are identified and divided into four treatment groups. The first group (CONTROL) receives two placebo tablet(s) each administered together at the same time each day for a period of 10 days.
# Laboratory data shall consist of a complete blood count, comprehensive metabolic panel, C-reactive protein, T and B cell lymphocyte panel, chest x-ray, and viral and aerobic cultures of the airway. Vital signs will be logged at the initial visit and the patient's fever profile tracked over the interim. Onset, duration and intensity of symptoms (headache, fever, cough, fatigue) will be logged in addition to the time to resolution of symptoms (time zero—first dose of medication(s)). Second endpoint data will include the time it takes to return to full activity, work/school.
# [4] = tested on: histamine induced wheal and flare; conditions: cited from earlier work
# [5] = cited from earlier work; remark: listed apart in the source
# [6] = cited from earlier work; remark: listed apart in the source
# influenza [7] = conditions: patients with influenza; cited from earlier work
compound,measurement,setting,value
"O=C(O)COCCN1CCN([C@H](c2ccccc2)c2ccc(Cl)cc2)CC1 [Levocetirizine, levocetirizine]",principal side effect,[1]; at higher doses,Sedation
same,dose that can be safely administered,[1]; humans,up to 30 mg/day
same,rhinovirus-induced ICAM-1 and cytokine expression and viral replication,human rhinovirus,inhibits
same,eosinophil migration,[2],decrease
same,"inflammatory mediators, IL-4, IL-6, and IL-8",[2],decrease
same,influenza symptoms,influenza [3],"reduced fever profile and overall feeling of fatigue, without significant foreshortening of the disease process"
same,potency among the five modern generation antihistamines,[4]; histamine induced wheal and flare data,most potent
same,effectiveness compared with fexofenadine,[4]; levocetirizine 5 mg per day vs fexofenadine 180 mg per day,more effective
same,Steady-state level,[5]; in vivo,40 h
same,time to steady state level,[5]; in vivo,40 h
"CC(C)(O)c1ccccc1CC[C@@H](SCC1(CC(=O)O)CC1)c1cccc(/C=C/c2ccc3ccc(Cl)cc3n2)c1 [Montelukast, montelukast]",dose administered without clinically important adverse experiences,"[6]; adult patients, 22 weeks",up to 200 mg/day
same,dose administered without clinically important adverse experiences,"[6]; short-term studies, approximately one week",up to 900 mg/day
same,"plasma concentration area under the curve profile, IV vs oral tablet",[5]; IV 7 mg vs approved 10 mg oral tablet,comparable
same,"drug interactions with warfarin, theophylline, digoxin, terfenadine, oral contraceptives, or prednisone","[5]; in vivo, po",no drug interactions
same,absorption,[5]; in vivo,rapidly absorbed
same,"linear pharmacokinetics, up to dose",[5]; in vivo,≤ 50 mg
same,time to peak plasma concentration,[5]; in vivo,3 to 4 h
same,"oral bioavailability and Cmax, effect of a standard meal",[5]; standard meal,not affected
CCOC(=O)C1=C[C@@H](OC(CC)CC)[C@H](NC(C)=O)[C@@H](N)C1 [oseltamivir],influenza related lower respiratory tract infections/complications,influenza [7],has not been shown to decrease; also recorded: did not appear to reduce
